Source: PubChem BioAssay (NCI)
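Each compound was tested at five concentrations against cells in 96-well plates for 48 hours. At the GI50, growth is halved. TGI is the concentration that stops growth completely.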

Tests used:
Test in all cases: NCI anticancer screen, dose series, 48 h
[1] = test system: OVCAR-5 ovarian
[2] = test system: CAKI-1 renal
[3] = test system: PC-3 prostate
[4] = test system: MCF7 breast
[5] = test system: SR leukemia
[6] = test system: HOP-92 NSCLC
[7] = test system: K-562 leukemia
[8] = test system: HCC-2998 colon
[9] = test system: IGROV1 ovarian
[10] = test system: NCI-H460 lung
[11] = test system: SK-MEL-28 melanoma
[12] = test system: NCI-H226 lung
[13] = test system: KM12 colon
[14] = test system: U251 CNS
[15] = test system: MDA-MB-231 breast
[16] = test system: OVCAR-3 ovarian
[17] = test system: SK-MEL-5 melanoma
[18] = test system: MALME-3M melanoma
[19] = test system: NCI-H23 lung
[20] = test system: A549 NSCLC
[21] = test system: SK-OV-3 ovarian
[22] = test system: COLO 205 colon
[23] = test system: A498 renal
[24] = test system: UACC-62 melanoma
[25] = test system: UO-31 renal
[26] = test system: T-47D breast
[27] = test system: OVCAR-4 ovarian
[28] = test system: TK-10 renal
[29] = test system: MOLT-4 leukemia
[30] = test system: CCRF-CEM leukemia
[31] = test system: ACHN renal
[32] = test system: HOP-62 NSCLC
[33] = test system: M14 melanoma
[34] = test system: RPMI-8226 leukemia
[35] = test system: 786-0 renal
[36] = test system: EKVX NSCLC
[37] = test system: LOX IMVI melanoma
[38] = test system: MDA-MB-435
[39] = test system: SK-MEL-2 melanoma
[40] = test system: RXF 393 renal
[41] = test system: HCT-116 colon
[42] = test system: SW-620 colon
[43] = test system: HL-60(TB) leukemia
[44] = test system: HCT-15 colon
[45] = test system: NCI-H522 lung
[46] = test system: UACC-257 melanoma
[47] = test system: SF-539 CNS
[48] = test system: SN12C renal
[49] = test system: OVCAR-8 ovarian
[50] = test system: HT29 colon
[51] = test system: BT-549 breast
[52] = test system: SNB-19 CNS
[53] = test system: HS 578T breast
[54] = test system: SF-268 CNS
[55] = test system: SNB-75 CNS
[56] = test system: NCI/ADR-RES ovarian
[57] = test system: DU-145 prostate
[58] = test system: SF-295 CNS

SMILES: Cc1nnc(-c2ccc(C)c(-c3ccc(C(=O)Nc4cccc(C#N)c4)cc3)c2)o1
- GI50 [1]: > 25 µM
- TGI [1]: > 25 µM
- GI50 [2]: > 25 µM
- TGI [2]: > 25 µM
- GI50 [3]: > 25 µM
- TGI [3]: > 25 µM
- GI50 [4]: > 25 µM
- TGI [4]: > 25 µM
- GI50 [5]: > 25 µM
- TGI [5]: > 25 µM
- GI50 [6]: > 25 µM
- TGI [6]: > 25 µM
- GI50 [7]: > 25 µM
- TGI [7]: > 25 µM
- GI50 [8]: > 25 µM
- TGI [8]: > 25 µM
- GI50 [9]: > 25 µM
- TGI [9]: > 25 µM
- GI50 [10]: > 25 µM
- TGI [10]: > 25 µM
- GI50 [11]: > 25 µM
- TGI [11]: > 25 µM
- GI50 [12]: > 10.9 µM
- TGI [12]: > 25 µM
- GI50 [13]: > 25 µM
- TGI [13]: > 25 µM
- GI50 [14]: > 25 µM
- TGI [14]: > 25 µM
- GI50 [15]: > 25 µM
- TGI [15]: > 25 µM
- GI50 [16]: > 25 µM
- TGI [16]: > 25 µM
- GI50 [17]: > 16.2 µM
- TGI [17]: > 25 µM
- GI50 [18]: > 25 µM
- TGI [18]: > 25 µM
- GI50 [19]: > 25 µM
- TGI [19]: > 25 µM
- GI50 [20]: > 25 µM
- TGI [20]: > 25 µM
- GI50 [21]: > 25 µM
- TGI [21]: > 25 µM
- GI50 [22]: > 25 µM
- TGI [22]: > 25 µM
- GI50 [23]: > 25 µM
- TGI [23]: > 25 µM
- GI50 [24]: > 25 µM
- TGI [24]: > 25 µM
- GI50 [25]: > 25 µM
- TGI [25]: > 25 µM
- GI50 [26]: > 15.9 µM
- TGI [26]: > 25 µM
- GI50 [27]: 17.7 µM
- TGI [27]: > 25 µM
- GI50 [28]: > 25 µM
- TGI [28]: > 25 µM
- GI50 [29]: > 25 µM
- TGI [29]: > 25 µM
- GI50 [30]: > 25 µM
- TGI [30]: > 25 µM
- GI50 [31]: > 25 µM
- TGI [31]: > 25 µM
- GI50 [32]: > 25 µM
- TGI [32]: > 25 µM
- GI50 [33]: > 25 µM
- TGI [33]: > 25 µM
- GI50 [34]: > 25 µM
- TGI [34]: > 25 µM
- GI50 [35]: > 25 µM
- TGI [35]: > 25 µM
- GI50 [36]: > 25 µM
- TGI [36]: > 25 µM
- GI50 [37]: > 25 µM
- TGI [37]: > 25 µM
- GI50 [38]: > 25 µM
- TGI [38]: > 25 µM
- GI50 [39]: > 25 µM
- TGI [39]: > 25 µM
- GI50 [40]: > 25 µM
- TGI [40]: > 25 µM
- GI50 [41]: > 25 µM
- TGI [41]: > 25 µM
- GI50 [42]: > 25 µM
- TGI [42]: > 25 µM
- GI50 [43]: > 25 µM
- TGI [43]: > 25 µM
- GI50 [44]: > 25 µM
- TGI [44]: > 25 µM
- GI50 [45]: > 25 µM
- TGI [45]: > 25 µM
- GI50 [46]: > 25 µM
- TGI [46]: > 25 µM
- GI50 [47]: > 25 µM
- TGI [47]: > 25 µM
- GI50 [48]: > 25 µM
- TGI [48]: > 25 µM
- GI50 [49]: > 25 µM
- TGI [49]: > 25 µM
- GI50 [50]: > 25 µM
- TGI [50]: > 25 µM
- GI50 [51]: > 25 µM
- TGI [51]: > 25 µM
- GI50 [52]: > 25 µM
- TGI [52]: > 25 µM
- GI50 [53]: > 25 µM
- TGI [53]: > 25 µM
- GI50 [54]: > 25 µM
- TGI [54]: > 25 µM
- GI50 [55]: > 25 µM
- TGI [55]: > 25 µM
- GI50 [56]: > 25 µM
- TGI [56]: > 25 µM
- GI50 [57]: > 25 µM
- TGI [57]: > 25 µM
- GI50 [58]: > 25 µM
- TGI [58]: > 25 µM
